The data set in a line: in vitro. As to conditions: human, hela cells, % viability.

Molecules are shown by their SMILES.

By viability is commonly meant a read-out of living cells in per cent, often relative to untreated cells. Turning to `COC(=O)c1scc(NS(=O)(=O)c2cccc(C(F)(F)F)c2)c1C(=O)OC` [CBK026680], the viability at 28.5 h, 10 µM came out at 94.9%.
As for `COc1ccc(C(=O)NNC(=O)c2cccc(Cl)c2)cc1OC` [CBK261704], the viability at 28.5 h, 10 µM stood at 91.4%.
Turning to `C=CCn1c(Cc2csc(NC(=O)c3ccc(C(C)=O)s3)n2)n[nH]c1=S` [CBK295299], the viability at 28.5 h, 10 µM was determined as 77%.
Same read-out and setting: the figure for `Cn1nccc1C(=O)C1CCN(C(=O)c2cccs2)CC1` [CBK284424] is 95.1%; for `c1ccc(-c2nccnc2NCC2CC2)cc1` [CBK088539] it is 88.4%.
Consider `CCOc1ccc(Cl)cc1CN(C)C(=O)NCC(C)CN(C)C` (stereo not drawn) [CBK307500], for which the viability at 28.5 h, 10 µM was 121%.
In the case of `CN(CC(F)(F)F)C(=O)CCc1nc(-c2cccs2)no1` [CBK282215], the viability at 28.5 h, 10 µM was 89.8%.
Consider `COc1ccc(Cn2nc(C(=O)O)c3ccccc32)cc1OC` [CBK093529], for which the viability at 28.5 h, 10 µM (bulk resorufin, single well) was 93%.
`Cc1c(Cc2ccccc2)c(N2CCN(C/C=C/c3ccccc3)CC2)n2c(nc3ccccc32)c1C#N` [CBK263112]: the viability at 28.5 h, 10 µM is 101%.
Same read-out and setting: the figure for `CCn1c2ccccc2c2cc(CN3CCN(c4ccccc4OC)CC3)ccc21` [CBK261579] is 85.4%; for `Cc1c(C(=O)N2CCCCC2CN2CCOCC2)[nH]c2c(F)cccc12` (stereo not drawn) [CBK306751] it is 105%; for `CCN1CCN(c2c(Cl)cccc2NC(=O)CSc2ccc(Cl)cc2)CC1` [CBK267606] it is 90.7%.
`CC(C)N(CCOc1nccnc1/C=C/c1ccccc1)C(C)C` [CBK106889]: the viability at 28.5 h, 10 µM worked out at 96%.
With `CN(C)CCNCCCSc1ccc(Cl)cc1` [CBK267794C], the viability at 28.5 h, 10 µM was found to be 104%.
On the same count and under the same terms, under `CCc1nnc(COC(=O)c2ccccc2NC(=O)Cc2ccccc2)o1` [CBK296762] stands 81.5%.
The same measure, in the same setting: under `CCOC(=O)c1sc2ccc(NC(C)=O)cc2c1C` [CBK021052] stands 76.8%.
Still for that read-out and setting: the figure for `CC1CCN(CCOCC(O)CNS(=O)(=O)O)CC1` (stereo not drawn) [CBK261454N] is 124%.
For `O=S(=O)(NC1CCCC1)c1cccc(-c2nnc(-c3ccccc3)o2)c1` [CBK265716], the viability at 28.5 h, 10 µM was determined as 94.6%.
Still for that read-out and setting: the figure for `CCCN1C(C)=NS(=O)(=O)c2cc(C(=O)O)ccc21` [CBK287251] is 92.4%.
`CCN(CC(=O)NC(C)(C)C)Cc1nc(-c2cccc(Br)c2)no1` [CBK304230]: the viability at 28.5 h, 10 µM stood at 102%.
On the same count and under the same terms, under `Cc1ccc(Nc2ncc3c(n2)CCCC3=O)cc1` [CBK288143] stands 87.6%; under `c1cncc(CNCc2ccoc2)c1` [CBK001744C], 88.1%.
Same read-out and setting: the figure for `CCN(CC)C(=O)Cn1ncc2c3oc(C)cc3n(C(C)C)c2c1=O` [CBK282848] is 90.7%; for `CN(C)CCNC(=S)Nc1ccc([N+](=O)[O-])cc1` [CBK266964] it is 97.7%.
The same measure, in the same setting: under `CC(=O)N1CCC(C(=O)NC(=O)NCc2ccc(F)cc2)CC1` [CBK034834] stands 107%; under `O=C(O)C(O)C(O)C(O)CO` (stereo not drawn) [CBK278306G], 89.3%; under `COc1cccc(CNc2nccnc2-c2ccc(S(C)(=O)=O)cc2)c1OC` [CBK037452], 104%.
With `COc1cccc(C(O)CN2CCC3(CC2)CC(O)c2cc(Cl)c(C)cc2O3)c1` (stereo not drawn) [CBK286342], the viability at 28.5 h, 10 µM came out at 99.3%.
Same read-out and setting: the figure for `CC1CCCCN1C(=O)CCc1nc2sc3c(c2c(=O)[nH]1)CCCC3` (stereo not drawn) [CBK306086] is 112%; for `O=C(O)c1ccccc1-c1ccc(-c2cc(C(=O)O)c3cc(F)ccc3n2)o1` [CBK269051] it is 98.8%; for `Cc1cccc(NC(=O)CSc2nc(O)c3c(C)cc(C)nc3n2)c1` [CBK266179] it is 90.5%.
The same measure, in the same setting: under `CC(C)(N)C(=O)N1CC(C(=O)NCCN(Cc2ccccc2)S(C)(=O)=O)C(c2ccccc2)C1` (stereo not drawn) [CBK014706T] stands 93.3%.
Still for that read-out and setting: under `Cc1nc(C)c(C(=O)NC2CCCNC2=O)s1` (stereo not drawn) [CBK281628] stands 86.8%.

Source of the values: paper PMC12040169 (PLOS Biology, 2025).
